# Measurements published in publication PMC10064984, “Anti-cyclooxygenase, anti-glycation, and anti-skin aging effect of Dendrobium officinale flowers’ aqueous extract and its phytochemical validation in aging” (Frontiers in Immunology, 2023).
# Where “and” joins values, the source holds several entries; their conditions need not be identical. Equal entries are not always repeated.
# Columns and labels:
# Type in all cases: biochemical
# [1] = Fluorescent AGEs formation in a BSA-fructose/glucose system; settings: for inhibition of fluorescent AGEs formation (BSA-抗糖化), 平均 (mean): mean of 3
# Experimental: Glycated protein was prepared in vitro by incubating BSA in the presence of D-glucose (GLC) and D-fructose (FRC). The DOF extract and specific standards were dissolved in DMSO:water (1:4). […] The assay was performed in triplicate, and AG was used as a positive control. The percentage inhibition of fluorescent AGE formation was calculated using the following equation: […] Where IF sample is fluorescence intensity in the presence of samples and BSA, IF sample control is fluorescence intensity in the presence of samples without BSA, IF control is fluorescence intensity without samples, and IF blank control is fluorescence intensity without samples and BSA.
# DPPH· scavenging = experiment: DPPH· scavenging;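 also: colourimetric DPPH radical scavenging in 96-well plates, absorbance read-out, percent inhibition relative to ethanol control absorbance, IC50 derived graphically from dose-inhibition curves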
# [2] = ABTS·+ decolourisation capacity
# Experimental: Fast colourimetric methods were slightly modified for the in vitro assessment of DPPH· scavenging ([19]), ABTS·+ decolourisation capacity ([20]), and total antioxidant capacity of FRAP ([21]). The stock solutions of derivatisation reagents were diluted as follows before measurement: DPPH was diluted with absolute ethanol until the absorbance was 0.8 ± 0.05 at λ = 517 nm. ABTS working solution was prepared with phosphate buffer (0.2 M, pH 7.4) to display absorbance of 0.8 ± 0.05 at λ = 729 nm, based on a previous study ([22]). The FRAP solution was prepared according to the instructions of the FRAP kit. Absorbances were measured using an automatic microplate reader (Molecular Group Ltd., USA), and all analyses were performed using 96-well plates. All measurements were performed in triplicate, and Trolox was used as a positive control.
# For ABTS·+ decolourisation capacity, 100 μl of ABTS working solution was mixed with 200 μl of sample solution, and the absorbance was recorded after 10 min at 729 nm. Phosphate buffer (0.2 M, pH 7.4) was used as a negative control.
# DPPH· and ABTS·+ radical scavenging activities of the tested sample were both calculated using the following formula:
# % inhibition = (A control − A sample)/A control × 100
# Where A control and A sample represent the absorbance of the control and test samples, respectively. The IC50 was calculated graphically from the dose-inhibition curves.
# [3] = FRAP total antioxidant capacity; settings: for 标准曲线对应浓度 mM FeSO4 (FRAP, FeSO4 equivalent from standard curve): individual replicates; for 标准曲线对应浓度 mM FeSO4, mean: mean of 3;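 as to all read-outs here: colourimetric FRAP kit assay read as absorbance in 96-well plates, values as mM FeSO4 via standard curve, EC1 being sample concentration matching 1.0 mmol/L FeSO4, Trolox positive control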
# COX-2 = molecular target: T1, COX-2 (Homo sapiens, UniProt P35354); experiment: Anti-COX-2 assay (COX-2 Inhibitor Screening Kit); settings: single replicates
# T1 construct: purchased Beyotime S0168
# T1 sequence (P35354 18-604): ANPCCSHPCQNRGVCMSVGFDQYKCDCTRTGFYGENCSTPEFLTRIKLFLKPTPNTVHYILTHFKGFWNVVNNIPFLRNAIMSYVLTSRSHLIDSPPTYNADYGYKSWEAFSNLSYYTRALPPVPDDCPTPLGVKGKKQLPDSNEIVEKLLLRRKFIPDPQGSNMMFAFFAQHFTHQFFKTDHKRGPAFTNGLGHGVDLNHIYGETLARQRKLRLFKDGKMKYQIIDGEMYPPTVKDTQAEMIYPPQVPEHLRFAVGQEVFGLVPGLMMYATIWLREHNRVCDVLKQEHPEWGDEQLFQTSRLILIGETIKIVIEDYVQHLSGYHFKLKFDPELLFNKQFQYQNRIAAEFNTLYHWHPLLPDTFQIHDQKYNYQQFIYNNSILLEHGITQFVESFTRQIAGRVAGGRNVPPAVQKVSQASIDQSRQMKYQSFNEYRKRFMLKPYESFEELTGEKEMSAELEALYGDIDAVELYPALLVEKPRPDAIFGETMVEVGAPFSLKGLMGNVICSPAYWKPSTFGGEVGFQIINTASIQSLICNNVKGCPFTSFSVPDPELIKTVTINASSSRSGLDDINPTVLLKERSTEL
# [4] = upper part of sheet (extract series), positive control also given in μM
# [5] = lower part of sheet (compound series)
structure (smiles),measurement,setting,value
O=C(O)CC(=O)OC[C@H]1O[C@@H](Oc2c(-c3ccc(O)c(O)c3)oc3cc(O)cc(O)c3c2=O)[C@H](O)[C@@H](O)[C@@H]1O,"inhibition of fluorescent AGEs formation (BSA-抗糖化), single replicate",[1]; 15.625 µM,10.51% and 15.35% and 23.11%
same,"inhibition of fluorescent AGEs formation (BSA-抗糖化), single replicate",[1]; 31.25 µM,5.08% and 5.86% and 10.67%
same,"inhibition of fluorescent AGEs formation (BSA-抗糖化), 平均 (mean)",[1]; 31.25 µM,7.20%
same,"inhibition of fluorescent AGEs formation (BSA-抗糖化), single replicate",[1]; 62.5 µM,17.13% and 15.89% and 16.80%
same,"inhibition of fluorescent AGEs formation (BSA-抗糖化), 平均 (mean)",[1]; 62.5 µM,16.61%
same,"inhibition of fluorescent AGEs formation (BSA-抗糖化), single replicate",[1]; 125 µM,26.98% and 29.78% and 30.07%
same,"inhibition of fluorescent AGEs formation (BSA-抗糖化), 平均 (mean)",[1]; 125 µM,28.94%
same,"inhibition of fluorescent AGEs formation (BSA-抗糖化), single replicate",[1]; 250 µM,45.50% and 47.09% and 47.76%
same,"inhibition of fluorescent AGEs formation (BSA-抗糖化), 平均 (mean)",[1]; 250 µM,46.78%
same,"inhibition of fluorescent AGEs formation (BSA-抗糖化), single replicate",[1]; 500 µM,61.62% and 62.32% and 63.30%
same,"inhibition of fluorescent AGEs formation (BSA-抗糖化), 平均 (mean)",[1]; 500 µM,62.41%
same,"inhibition of fluorescent AGEs formation (BSA-抗糖化), single replicate",[1]; 1000 µM,77.56% and 77.94% and 77.85%
same,"inhibition of fluorescent AGEs formation (BSA-抗糖化), 平均 (mean)",[1]; 1000 µM,77.78%
same,"inhibition of fluorescent AGEs formation (BSA-抗糖化), single replicate",[1]; 2000 µM,88.53% and 88.63% and 88.83%
same,"inhibition of fluorescent AGEs formation (BSA-抗糖化), 平均 (mean)",[1]; 2000 µM,88.66%
same,"inhibition of fluorescent AGEs formation (BSA-抗糖化), single replicate",[1]; 4000 µM,94.35% and 94.74% and 94.79%
same,"inhibition of fluorescent AGEs formation (BSA-抗糖化), 平均 (mean)",[1]; 4000 µM,94.62%
same,IC50,"[1]; BSA-抗糖化, mean of 3 replicate IC50, read-out: IC50µM, mean",288 µM
same,IC50,"[1]; BSA-抗糖化, per replicate curve, read-out: IC50µM, single replicate",306 µM and 289 µM and 270 µM
"Cc1c(C)c2c(c(C)c1O)CCC(C)(C(=O)O)O2 (centres unmarked) [Trolox, 6-hydroxyl-2,5,7,8-tetra-methylchroman-2-carboxylic acid, reference compound]","DPPH scavenging (sheet ""DPPH""), single replicate",DPPH· scavenging; 15.625 ug/ml,32.84% and 29.98% and 33.39%
same,"DPPH scavenging (sheet ""DPPH""), single replicate",DPPH· scavenging; 31.25 ug/ml,58.95% and 55.65% and 57.84%
same,"DPPH scavenging (sheet ""DPPH""), single replicate",DPPH· scavenging; 62.5 ug/ml,84.01% and 87.99% and 89.81%
same,"DPPH scavenging (sheet ""DPPH""), single replicate",DPPH· scavenging; 125 ug/ml,89.42% and 88.80% and 89.64%
same,"DPPH scavenging (sheet ""DPPH""), single replicate",DPPH· scavenging; 250 ug/ml,88.55% and 89.46% and 90.81%
same,"DPPH scavenging (sheet ""DPPH""), single replicate",DPPH· scavenging; 500 ug/ml,93.00% and 92.15% and 93.91%
same,"DPPH scavenging (sheet ""DPPH""), single replicate",DPPH· scavenging; 1000 ug/ml,95.26% and 95.19% and 95.32%
same,IC50,"DPPH· scavenging; mean ± SD, n = 3",159 ± 4.47 µM
same,IC50,DPPH· scavenging; [4],98.8 µM
same,ABTS scavenging rate,"[2]; 7.8125 ug/ml, single replicate wells",8.24% and 9.20% and 7.27%
same,ABTS scavenging rate,"[2]; 15.625 ug/ml, single replicate wells",16.72% and 19.40% and 19.88%
same,ABTS scavenging rate,"[2]; 31.25 ug/ml, single replicate wells",61.34% and 52.07% and 52.74%
same,ABTS scavenging rate,"[2]; 62.5 ug/ml, single replicate wells",94.28% and 95.58% and 92.94%
same,ABTS scavenging rate,"[2]; 125 ug/ml, single replicate wells",96.25% (2×) and 96.22%
same,ABTS scavenging rate,"[2]; 250 ug/ml, single replicate wells",96.32% and 96.28% and 96.27%
same,ABTS scavenging rate,"[2]; 0.5mM series, concentration 7.8125 (unit not given), replicate wells",5.05% and 4.88% and 5.29%
same,ABTS scavenging rate,"[2]; 0.5mM series, concentration 15.625 (unit not given), replicate wells",12.72% and 13.81% and 12.64%
same,ABTS scavenging rate,"[2]; 0.5mM series, concentration 31.25 (unit not given), replicate wells",31.58% and 33.31% and 33.45%
same,ABTS scavenging rate,"[2]; 0.5mM series, concentration 62.5 (unit not given), replicate wells",67.91% and 69.65% and 70.29%
same,ABTS scavenging rate,"[2]; 0.5mM series, concentration 125 (unit not given), replicate wells",99.61% and 99.52% and 99.85%
same,ABTS scavenging rate,"[2]; 0.5mM series, concentration 250 (unit not given), replicate wells",99.86% and 99.73% and 99.90%
same,ABTS scavenging rate,"[2]; 0.5mM series, concentration 500 (unit not given), replicate wells",99.85% and 99.75% and 99.73%
same,ABTS scavenging rate,"[2]; 500 ug/ml, single replicate wells",96.17% and 96.23% and 96.35%
same,IC50,"[2]; mean ± SD, n = 3",145.7 ± 1.22 µM
same,IC50,[2]; [4],111 µM
same,"标准曲线对应浓度 mM FeSO4 (FRAP, FeSO4 equivalent from standard curve)",[3]; 0.15 mM (37.5 μg/ml),0.9597 mM FeSO4 and 0.8823 mM FeSO4 and 0.8550 mM FeSO4
same,"标准曲线对应浓度 mM FeSO4, mean",[3]; 0.15 mM (37.5 μg/ml),0.8990 mM FeSO4
same,"标准曲线对应浓度 mM FeSO4 (FRAP, FeSO4 equivalent from standard curve)",[3]; 0.3 mM (75 μg/ml),1.6552 mM FeSO4 and 1.6329 mM FeSO4 and 1.5219 mM FeSO4
same,"标准曲线对应浓度 mM FeSO4, mean",[3]; 0.3 mM (75 μg/ml),1.6033 mM FeSO4
same,"标准曲线对应浓度 mM FeSO4 (FRAP, FeSO4 equivalent from standard curve)",[3]; 0.6 mM (150 μg/ml),3.1630 mM FeSO4 and 2.8987 mM FeSO4 and 2.7627 mM FeSO4
same,"标准曲线对应浓度 mM FeSO4, mean",[3]; 0.6 mM (150 μg/ml),2.9415 mM FeSO4
same,"标准曲线对应浓度 mM FeSO4 (FRAP, FeSO4 equivalent from standard curve)",[3]; 0.9 mM (225 μg/ml),4.4046 mM FeSO4 and 4.2357 mM FeSO4 and 4.0364 mM FeSO4
same,"标准曲线对应浓度 mM FeSO4, mean",[3]; 0.9 mM (225 μg/ml),4.2256 mM FeSO4
same,"标准曲线对应浓度 mM FeSO4 (FRAP, FeSO4 equivalent from standard curve)",[3]; 1.2 mM (300 μg/ml),5.8342 mM FeSO4 and 5.5270 mM FeSO4 and 5.3675 mM FeSO4
same,"标准曲线对应浓度 mM FeSO4, mean",[3]; 1.2 mM (300 μg/ml),5.5762 mM FeSO4
same,"标准曲线对应浓度 mM FeSO4 (FRAP, FeSO4 equivalent from standard curve)",[3]; 1.5 mM (375 μg/ml),6.9332 mM FeSO4 and 6.7909 mM FeSO4 and 6.4969 mM FeSO4
same,"标准曲线对应浓度 mM FeSO4, mean",[3]; 1.5 mM (375 μg/ml),6.7403 mM FeSO4
same,FRAP EC1,[3]; [5],559.8 ± 19.4 µM
same,FRAP EC1,"[3]; mean ± SD, n = 3",559.8 ± 19.4 µM
same,FRAP EC1,[3]; upper part of sheet (extract series),55.35 ± 5.22 µg/mL
"O=c1cc(-c2ccc(O)cc2)oc2c(C3OC(CO)C(O)C(O)C3O)c(O)c(C3OCC(O)C(O)C3O)c(O)c12 (centres unmarked) [compound 14, Vicenin-1]",IC50,"DPPH· scavenging; mean ± SD, n = 3",> 5000 µM
same,IC50,"[2]; mean ± SD, n = 3",96.4 ± 2.11 µM
same,FRAP EC1,[3]; [5],>5000 µM
same,COX-2 inhibition,"COX-2; 31.25 μM, listed as T6, 31.25 µM",-4.26%
same,COX-2 inhibition,"COX-2; 62.5 μM, listed as T6, 62.5 µM",-25.49% and -4.46%
same,COX-2 inhibition,"COX-2; 125 μM, listed as T6, 125 µM",-10.40%
same,COX-2 inhibition,"COX-2; 500 μM, listed as T6, 500 µM",-29.71% and -20.21%
same,COX-2 inhibition,"COX-2; 1000 μM, listed as T6, 1000 µM",-42.43% and -38.19%
same,IC50,"[1]; mean ± SD, n = 3, read-out: BSA-glycation IC50",256 ± 5.44 µM
